Molecules are shown by their SMILES.

T1 sequence (P10721 26-976): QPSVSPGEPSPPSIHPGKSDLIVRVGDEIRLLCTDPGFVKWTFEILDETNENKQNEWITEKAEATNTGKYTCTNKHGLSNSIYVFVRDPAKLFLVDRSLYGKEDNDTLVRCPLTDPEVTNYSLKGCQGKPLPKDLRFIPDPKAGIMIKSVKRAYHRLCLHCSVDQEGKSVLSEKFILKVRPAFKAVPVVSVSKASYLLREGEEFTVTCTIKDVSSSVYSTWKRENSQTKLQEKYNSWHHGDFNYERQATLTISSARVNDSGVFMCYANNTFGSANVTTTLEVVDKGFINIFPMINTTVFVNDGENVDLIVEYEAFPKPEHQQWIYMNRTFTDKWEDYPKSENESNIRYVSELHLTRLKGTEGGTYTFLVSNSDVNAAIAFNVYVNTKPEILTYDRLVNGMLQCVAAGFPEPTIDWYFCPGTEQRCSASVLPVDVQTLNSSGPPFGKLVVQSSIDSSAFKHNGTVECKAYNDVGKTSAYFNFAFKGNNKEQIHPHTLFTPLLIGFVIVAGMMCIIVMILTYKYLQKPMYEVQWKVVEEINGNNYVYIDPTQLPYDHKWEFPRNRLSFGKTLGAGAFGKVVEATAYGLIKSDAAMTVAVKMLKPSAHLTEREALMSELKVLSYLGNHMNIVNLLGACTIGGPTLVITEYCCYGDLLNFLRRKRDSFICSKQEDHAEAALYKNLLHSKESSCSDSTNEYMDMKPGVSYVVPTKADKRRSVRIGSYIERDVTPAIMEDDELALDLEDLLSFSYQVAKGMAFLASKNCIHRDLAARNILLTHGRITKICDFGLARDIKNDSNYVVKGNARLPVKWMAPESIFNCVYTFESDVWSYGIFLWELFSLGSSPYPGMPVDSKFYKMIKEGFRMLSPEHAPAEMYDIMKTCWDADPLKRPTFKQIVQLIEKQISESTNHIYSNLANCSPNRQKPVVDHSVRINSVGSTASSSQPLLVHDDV

This experiment addresses T1, c-kit kinase (Homo sapiens, UniProt P10721).
T1 construct: The c-kit (or kinase domain thereof) is an active kinase in AlphaScreen; poly-Histidine tag (in-house protein only) (cleaved yes); host or cells: E. coli BL21(DE3)RIL, co-expressed with PTP1B
As to the kind of experiment: c-Kit biochemical assay, AlphaScreen, 10 μM ATP. The note with it: c-kit biochemical inhibitory activity; read-out: Biochemical activity (IC50 μM) Kit. The method, then: IC50 values are determined with respect to inhibition of c-Kit kinase activity, where inhibition of phosphorylation of a peptide substrate is measured as a function of compound concentration. Compounds to be tested were dissolved in DMSO to a concentration of 20 mM. These were diluted 30 μl into 120 μl of DMSO (4 mM) and 1 μl was added to an assay plate. These were then serially diluted 1:3 (50 μl to 100 μl DMSO) for a total of 8 points. Plates were prepared such that each kinase reaction is 20 μl in 1× kinase buffer (50 mM HEPES, pH 7.2, 5 mM MgCl2, 5 mM MnCl2, 0.01% NP-40, 0.2% BSA), 5% DMSO and 10 μM ATP. […] C-kit kinase was at 0.1 ng per sample. After incubation of the kinase reaction for 1 hour at room temperature, 5 μl of donor beads (Streptavidin coated beads (Perkin Elmer Life Science) final concentration 1 μg/ml) in stop buffer (50 mM EDTA in 1× kinase buffer) was added, the sample was mixed and incubated for 20 minutes at room temperature before adding 5 μl of acceptor beads (PY20 coated beads (Perkin Elmer Life Science) final concentration 1 μg/ml) in stop buffer. The samples were incubated for 60 minutes at room temperature and the signal per well was read on AlphaQuest reader. […] The signal vs. compound concentration was used to determine the IC50.
Complementary DNA cloned from various human tissues were purchased from Invitrogen, and these were used as substrates in the PCR reactions. Specific custom synthetic oligonucleotide primers were designed to initiate the PCR product, and also to provide the appropriate restriction enzyme cleavage sites for ligation with the plasmids. The entire sequence encoding the enzyme was made through a gene synthesis procedure, using custom synthetic oligonucleotides covering the entire coding sequence (Invitrogen, see below).
The plasmid used for ligation with the kinase-encoding inserts was derivative of pET (Novagen) for expression using E. coli. The Kit kinase was engineered to include a Histidine tag for purification using metal affinity chromatography. The kinase-encoding plasmid was engineered as bicistronic mRNA to co-express a second protein that modifies the kinase protein during its expression in the host cell. Protein tyrosine phosphatase 1B (PTP), was co-expressed for dephosphorylation of the phospho-Tyrosines.
For protein expression, the plasmid containing the Kit gene was transformed into E. coli strains BL21(DE3)RIL and transformants selected for growth on LB agar plates containing appropriate antibiotics. Single colonies were grown overnight at 37° C. in 200 ml TB (Terrific broth) media. 16×1 L of fresh TB media in 2.8 L flasks were inoculated with 10 ml of overnight culture and grown with constant shaking at 37° C. Once cultures reached an absorbance of 1.0 at 600 nm, IPTG was added and cultures were allowed to grow for a further 12 to 18 hrs at temperatures ranging from 12-30° C. Cells were harvested by centrifugation and pellets frozen at […] until ready for lysis.
For protein Purification; frozen E. coli cell pellets were resuspended in lysis buffer and lysed using standard mechanical methods. Protein was purified via poly-Histidine tags using immobilized metal affinity purification IMAC. The Kit kinase was purified using a 3 step purification process utilizing; IMAC, size exclusion chromatography and ion exchange chromatography. The poly-Histidine tag was removed using Thrombin (Calbiochem).
Turning to `COc1cc2ncnc(-c3ccc(S(N)(=O)=O)cc3)c2cc1OC` [P-0278, 4-(6,7-dimethoxyquinazolin-4-yl)benzenesulfonamide], the IC50 fell in the range of 10 to 200 µM. To `COc1cc2ncnc(-c3cccc(NS(=O)(=O)C4CC4)c3)c2cc1OC` [P-0279, N-[3-(6,7-dimethoxyquinazolin-4-yl)phenyl]cyclopropanesulfonamide] belongs 10 to 200 µM; to `COc1cc2ncnc(-c3ccc(NS(=O)(=O)C4CC4)cc3)c2cc1OC` [P-0280, N-[4-(6,7-dimethoxyquinazolin-4-yl)phenyl]cyclopropanesulfonamide], 10 to 200 µM. The value for `O=S(=O)(Nc1ccc(-c2ncnc3[nH]c(C(F)F)cc23)c(F)c1)c1ccc(Cl)cc1` [P-0310, 4-chloro-N-[4-[6-(difluoromethyl)-7H-pyrrolo[2,3-d]pyrimidin-4-yl]-3-fluoro-phenyl]benzenesulfonamide] was 1 to 10 µM; that for `Cc1cc2c(-c3ccc(NS(=O)(=O)c4ccccc4F)c(F)c3)ncnc2[nH]1` [P-0348, 2-fluoro-N-[2-fluoro-4-(6-methyl-7H-pyrrolo[2,3-d]pyrimidin-4-yl)phenyl]benzenesulfonamide] was 0.0001 to 1 µM; that for `CS(=O)(=O)Nc1cc(F)c(-c2ncnc3[nH]c(-c4ccc(F)cc4)cc23)cc1F` [P-0356, N-[2,5-difluoro-4-[6-(4-fluorophenyl)-7H-pyrrolo[2,3-d]pyrimidin-4-yl]phenyl]methanesulfonamide] was 0.0001 to 1 µM. Consider `Fc1ccc(-c2cc3c(-c4cccnc4C(F)(F)F)ncnc3[nH]2)cc1` [P-0374, 6-(4-fluorophenyl)-4-[2-(trifluoromethyl)-3-pyridyl]-7H-pyrrolo[2,3-d]pyrimidine], for which the IC50 fell in the range of 10 to 200 µM. The value for `Cc1cc2c(-c3ccc(NS(=O)(=O)C4CC4)cc3)ncnc2[nH]1` [P-0377, N-[4-(6-methyl-7H-pyrrolo[2,3-d]pyrimidin-4-yl)phenyl]cyclopropanesulfonamide] was 10 to 200 µM. The value for `CS(=O)(=O)c1ccc(-c2ncnc3[nH]c(-c4ccc(F)cc4)cc23)cc1` [P-0391, 6-(4-fluorophenyl)-4-(4-methylsulfonylphenyl)-7H-pyrrolo[2,3-d]pyrimidine] was 1 to 10 µM; that for `Fc1ccc(-c2cc3c(-c4ccncc4)ncnc3[nH]2)cc1` [P-0392, 6-(4-fluorophenyl)-4-(4-pyridyl)-7H-pyrrolo[2,3-d]pyrimidine] was 0.0001 to 1 µM; that for `Fc1ccc(-c2cc3c(-c4ccc(F)cc4)ncnc3[nH]2)cc1` [P-0395, 4,6-bis(4-fluorophenyl)-7H-pyrrolo[2,3-d]pyrimidine] was 0.0001 to 1 µM. The value for `CCCCNS(=O)(=O)c1ccc(-c2ncnc3[nH]c(-c4ccc(F)cc4)cc23)cc1` [P-0421, N-butyl-4-[6-(4-fluorophenyl)-7H-pyrrolo[2,3-d]pyrimidin-4-yl]benzenesulfonamide] was 10 to 200 µM; that for `Cc1ccc(-c2cc3c(N4CCC(NS(=O)(=O)c5ccc(OC(F)(F)F)cc5)CC4)ncnc3[nH]2)cn1` [P-0459, N-[1-[6-(6-methyl-3-pyridyl)-7H-pyrrolo[2,3-d]pyrimidin-4-yl]-4-piperidyl]-4-(trifluoromethoxy)benzenesulfonamide] was 10 to 200 µM.

Consider `N#Cc1ccc(-c2cc3c(N4CCC(NS(=O)(=O)c5ccc(OC(F)(F)F)cc5)CC4)ncnc3[nH]2)cc1` [P-0464, N-[1-[6-(4-cyanophenyl)-7H-pyrrolo[2,3-d]pyrimidin-4-yl]-4-piperidyl]-4-(trifluoromethoxy)benzenesulfonamide], for which the half-inhibitory concentration (IC50) is 10 to 200 µM. The value for `CS(=O)(=O)NC1CCN(c2ncnc3[nH]c(C#CC4CC4)cc23)CC1` [P-0472, N-[1-[6-(2-cyclopropylethynyl)-7H-pyrrolo[2,3-d]pyrimidin-4-yl]-4-piperidyl]methanesulfonamide] was 10 to 200 µM. Consider `O=C1CCCN1c1ccc(S(=O)(=O)NC2CCN(c3ncnc4[nH]c(-c5ccc(Cl)cc5)cc34)CC2)cc1` [P-0473, N-[1-[6-(4-chlorophenyl)-7H-pyrrolo[2,3-d]pyrimidin-4-yl]-4-piperidyl]-4-(2-oxopyrrolidin-1-yl)benzenesulfonamide], for which the IC50 lay in the range of 10 to 200 µM. Turning to `CN(C)c1ccc(NC(=O)NC2CCN(c3ncnc4[nH]ccc34)CC2)cc1` [P-0506, 1-(4-dimethylaminophenyl)-3-[1-(7H-pyrrolo[2,3-d]pyrimidin-4-yl)-4-piperidyl]urea], the IC50 lay in the range of 10 to 200 µM. The value for `O=C(Nc1ccc(Cl)cc1)NC1CCN(c2ncnc3[nH]ccc23)CC1` [P-0519, 1-(4-chlorophenyl)-3-[1-(7H-pyrrolo[2,3-d]pyrimidin-4-yl)-4-piperidyl]urea] was 10 to 200 µM; that for `O=C(NC(=O)c1ccccc1)NC1CCN(c2ncnc3[nH]ccc23)CC1` [P-0522, N-[[1-(7H-pyrrolo[2,3-d]pyrimidin-4-yl)-4-piperidyl]carbamoyl]benzamide] was 10 to 200 µM. The value for `O=C(NC1CCCC1)NC1CCN(c2ncnc3[nH]ccc23)CC1` [P-0526, 1-cyclopentyl-3-[1-(7H-pyrrolo[2,3-d]pyrimidin-4-yl)-4-piperidyl]urea] was 10 to 200 µM; that for `CCCC(=O)NC1CCN(c2ncnc3[nH]ccc23)CC1` [P-0527, N-[1-(7H-pyrrolo[2,3-d]pyrimidin-4-yl)-4-piperidyl]butanamide] was 10 to 200 µM; that for `O=C(NC1CCN(c2ncnc3[nH]ccc23)CC1)C1CCCCC1` [P-0528, N-[1-(7H-pyrrolo[2,3-d]pyrimidin-4-yl)-4-piperidyl]cyclohexanecarboxamide] was 10 to 200 µM. As for `O=C(NC1CCN(c2ncnc3[nH]ccc23)CC1)C1CCCC1` [P-0529, N-[1-(7H-pyrrolo[2,3-d]pyrimidin-4-yl)-4-piperidyl]cyclopentanecarboxamide], the IC50 is 10 to 200 µM. The value for `CCc1ccc(C(=O)NC2CCN(c3ncnc4[nH]ccc34)CC2)cc1` [P-0530, 4-ethyl-N-[1-(7H-pyrrolo[2,3-d]pyrimidin-4-yl)-4-piperidyl]benzamide] was 10 to 200 µM; that for `O=C(NC1CCN(c2ncnc3[nH]ccc23)CC1)c1ccccc1` [P-0531, N-[1-(7H-pyrrolo[2,3-d]pyrimidin-4-yl)-4-piperidyl]benzamide] was 10 to 200 µM.

For `CCCS(=O)(=O)NC1CCN(c2ncnc3[nH]ccc23)CC1` [P-0532, N-[1-(7H-pyrrolo[2,3-d]pyrimidin-4-yl)-4-piperidyl]propane-1-sulfonamide], the IC50 lay in the range of 10 to 200 µM. To `O=S(=O)(NC1CCN(c2ncnc3[nH]ccc23)CC1)c1ccccc1` [P-0533, N-[1-(7H-pyrrolo[2,3-d]pyrimidin-4-yl)-4-piperidyl]benzenesulfonamide] belongs 10 to 200 µM; to `CCOc1ccc(NC(=O)NC2CCN(c3ncnc4[nH]ccc34)CC2)cc1` [P-0534, 1-(4-ethoxyphenyl)-3-[1-(7H-pyrrolo[2,3-d]pyrimidin-4-yl)-4-piperidyl]urea], 10 to 200 µM; to `CCc1ccc(NC(=O)NC2CCN(c3ncnc4[nH]ccc34)CC2)cc1` [P-0535, 1-(4-ethylphenyl)-3-[1-(7H-pyrrolo[2,3-d]pyrimidin-4-yl)-4-piperidyl]urea], 1 to 10 µM. To `CCCNC(=O)NC1CCN(c2ncnc3[nH]ccc23)CC1` [P-0536, 1-propyl-3-[1-(7H-pyrrolo[2,3-d]pyrimidin-4-yl)-4-piperidyl]urea] belongs 10 to 200 µM; to `O=C(NC1CCCCC1)NC1CCN(c2ncnc3[nH]ccc23)CC1` [P-0537, 1-cyclohexyl-3-[1-(7H-pyrrolo[2,3-d]pyrimidin-4-yl)-4-piperidyl]urea], 10 to 200 µM. To `O=C(Nc1ccccc1)NC1CCN(c2ncnc3[nH]ccc23)CC1` [P-0538, 1-phenyl-3-[1-(7H-pyrrolo[2,3-d]pyrimidin-4-yl)-4-piperidyl]urea] belongs 10 to 200 µM.

Turning to `Cc1ccc(-c2cc3c(C4=CCC(NS(=O)(=O)c5ccc(OC(F)(F)F)cc5)CC4)ncnc3[nH]2)cn1` (stereo not drawn) [P-0544, N-[4-[6-(6-methyl-3-pyridyl)-7H-pyrrolo[2,3-d]pyrimidin-4-yl]cyclohex-3-en-1-yl]-4-(trifluoromethoxy)benzenesulfonamide], the half-inhibitory concentration (IC50) was in the range of 10 to 200 µM.

These data come from US10227357B2, “Compounds and methods for kinase modulation, and indications therefor” (Plexxikon Inc., priority 2012, dated 2019).
